Experimental data as given in the supplement of paper PMC8024199.
± gives the standard deviation of the averaged measurements.

What was measured:
Test in all cases: drug sensitivity score (DSS) (DSS score); higher = more sensitive (stronger growth inhibition); extreme values may be limits of the assay
[1] = test system: Ba/F3 P210-BCR-ABL1 RUNX1-/- (mouse)
How it was run: (§1)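 Mouse Ba/F3 cells carrying P210-BCR-ABL1, CRISPR/Cas9-edited at runx1 exon 4 or edited-control clones, were screened against a 528-compound library on pre-printed 384-well plates. Each compound ran at five concentrations spanning a 10,000-fold range, with 10,000 cells per well in RPMI with 10% FBS for 72 h at 37 °C and 5% CO2. CellTiter-Glo luminescence was scaled between vehicle and positive-control wells. A drug sensitivity score summarised each dose-response, averaged over two replicates.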

[2] = test system: Ba/F3 P210-BCR-ABL1 RUNX1-/mut (mouse)
How it was run: as §1

[3] = test system: Ba/F3 P210-BCR-ABL1 RUNX1wt/wt control (mouse)
How it was run: as §1

Ly-BP RUNX1 p.R204Q = test system: Ly-BP RUNX1 p.R204Q
How it was run: (§2)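 For this ex vivo screen, 10,000 thawed bone marrow mononuclear cells from blast-phase CML patients were placed in each well of 384-well plates in Mononuclear Cell Medium containing gentamicin and amphotericin B. The plates carried pre-printed compounds from an oncology library of 125 approved and 127 investigational agents, at five concentrations across a 10,000-fold range, and were incubated 72 h at 37 °C with 5% CO2. CellTiter-Glo viability, normalised to vehicle and positive-control wells, was fitted as a dose-response curve and summarised as a drug sensitivity score.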

Ly-BP RUNX1 wild-1 = test system: Ly-BP RUNX1 wild-1
How it was run: as §2

My-BP RUNX1 wild-2 = test system: My-BP RUNX1 wild-2
How it was run: as §2

My-BP RUNX1 wild-3 = test system: My-BP RUNX1 wild-3
How it was run: as §2

My-BP RUNX1 wild-4 = test system: My-BP RUNX1 wild-4
How it was run: as §2

Mye-BP RUNX1 p.K117* = test system: Mye-BP RUNX1 p.K117*
How it was run: as §2

Mye-BP RUNX1 p.R107C = test system: Mye-BP RUNX1 p.R107C
How it was run: as §2

Mye-BP RUNX1 p.R162K = test system: Mye-BP RUNX1 p.R162K
How it was run: as §2

Row | SMILES | drug sensitivity score [1] | drug sensitivity score [2] | drug sensitivity score [3] | drug sensitivity score (Ly-BP RUNX1 p.R204Q) | drug sensitivity score (Ly-BP RUNX1 wild-1) | drug sensitivity score (My-BP RUNX1 wild-2) | drug sensitivity score (My-BP RUNX1 wild-3) | drug sensitivity score (My-BP RUNX1 wild-4) | drug sensitivity score (Mye-BP RUNX1 p.K117*) | drug sensitivity score (Mye-BP RUNX1 p.R107C) | drug sensitivity score (Mye-BP RUNX1 p.R162K)
1 | N#Cc1ccc(C(c2ccc(C#N)cc2)n2cncn2)cc1 [Letrozole] | 0 | 0 | 0 | 0 | 0 | 0 | 0 | 0 | 0 | 0 | 0
2 | C[C@]1(O)C[C@@H](c2nc(-c3ccc4ccc(-c5ccccc5)nc4c3)c3c(N)nccn32)C1 [Linsitinib] | 1.2 ± 1.7 | 1.75 ± 2.3 | 0 | 4.78 | 3.2 | 0 | 1.73 | 0 | 3 | 6.5 | 8.17
3 | NC1(c2ccc(-c3nc4ccn5c(=O)[nH]nc5c4cc3-c3ccccc3)cc2)CCC1 [MK-2206] | 2.9 ± 0.85 | 2.45 ± 2 | 0 | 11.9 | 12.4 | 0.393 | 4.01 | 2.51 | 10.5 | 10.3 | 4.19
4 | Cc1ccc(NC(=O)c2ccc(CN3CCN(C)CC3)cc2)cc1Nc1nc(-c2cccnc2)cs1 [Masitinib] | 10.2 ± 0.64 | 7.1 ± 0.71 | 5.65 ± 0.78 | 0 | 7.4 | 5.81 | 6.25 | 8.68 | 6.6 | 8.4 | 13.8
5 | S=c1[nH]cnc2nc[nH]c12 [Mercaptopurine] | 9.2 ± 0.99 | 3.65 ± 0.35 | 6.25 ± 0.78 | 0 | 2.9 | 0 | 0 | 0 | 0 | 0 | 0
6 | CN(Cc1cnc2nc(N)nc(N)c2n1)c1ccc(C(=O)N[C@@H](CCC(=O)O)C(=O)O)cc1 [Methotrexate] | 20.1 ± 7.6 | 25.6 ± 1.9 | 22.4 ± 1.1 | 0 | 0 | 7.52 | 0 | 0 | 1.7 | 0 | 1.89
7 | C[C@H]1C[C@@H]2[C@H]([C@@H](O)C[C@@]3(C)[C@H]2CC[C@]3(O)C(=O)CO)[C@@]2(C)C=CC(=O)C=C12 [Methylprednisolone] | 0.15 ± 0.21 | 2.4 ± 3.4 | 0.25 ± 0.35 | 25.5 | 25.7 | 2.28 | 0.748 | 1.34 | 14.6 | 4.3 | 6.6
8 | CO[C@@H]1[C@H](N(C)C(=O)c2ccccc2)C[C@H]2O[C@]1(C)n1c3ccccc3c3c4c(c5c6ccccc6n2c5c31)C(=O)NC4 [Midostaurin] | 13.6 ± 3 | 11.8 ± 3.4 | 6.15 ± 0.21 | 0 | 8.5 | 7.69 | 0.0352 | 3.3 | 13.4 | 2.5 | 6.91
9 | CO[C@@]12[C@H](COC(N)=O)C3=C(C(=O)C(C)=C(N)C3=O)N1C[C@@H]1N[C@@H]12 [Mitomycin C] | 6.55 ± 3.9 | 4.9 ± 1.8 | 4.35 ± 0.78 | 11.2 | 1.2 | 1.46 | 2.21 | 0 | 1.1 | 10.8 | 3.95
10 | Clc1ccc(C(c2ccccc2Cl)C(Cl)Cl)cc1 (stereo not given) [Mitotane] | 0.45 ± 0.64 | 0.75 ± 1.1 | 0.35 ± 0.49 | 0 | 0 | 0 | 0 | 0 | 0 | 0 | 0
11 | O=C1c2c(O)ccc(O)c2C(=O)c2c(NCCNCCO)ccc(NCCNCCO)c21 [Mitoxantrone] | 30.5 ± 4.7 | 29.1 ± 4.9 | 22.4 ± 0.35 | 0 | 6.8 | 15.6 | 1.29 | 16.5 | 7 | 9.8 | 7.19
12 | CC1(C)CNc2cc(NC(=O)c3cccnc3NCc3ccncc3)ccc21 [Motesanib] | 1.5 ± 2.1 | 1.6 ± 1.6 | 1.25 ± 1.8 | 0 | 3 | 0 | 0.188 | 0 | 0 | 2.5 | 0
13 | CC1(C)CCC(c2ccc(Cl)cc2)=C(CN2CCN(c3ccc(C(=O)NS(=O)(=O)c4ccc(N[C@H](CCN5CCOCC5)CSc5ccccc5)c(S(=O)(=O)C(F)(F)F)c4)cc3)CC2)C1 [Navitoclax] | 1.55 ± 1.3 | 4.45 ± 4 | 7.05 ± 0.78 | 20.3 | 24.9 | 20 | 15.5 | 18.4 | 11.4 | 31.2 | 28.1
14 | COc1nc(N)nc2c1ncn2[C@@H]1O[C@H](CO)[C@@H](O)[C@@H]1O [Nelarabine] | 3.3 ± 4.7 | 2.55 ± 3.6 | 0 | 3.14 | 3.5 | 0.879 | 4.86 | 3.32 | 0 | 8.3 | 2.13
15 | Cc1cn(-c2cc(NC(=O)c3ccc(C)c(Nc4nccc(-c5cccnc5)n4)c3)cc(C(F)(F)F)c2)cn1 [Nilotinib] | 35.5 ± 1.1 | 25.6 ± 5.7 | 28.6 | 0 | 6.8 | 3.2 | 0 | 3.46 | 8.1 | 8.6 | 34.5
16 | CC1(C)NC(=O)N(c2ccc([N+](=O)[O-])c(C(F)(F)F)c2)C1=O [Nilutamide] | 0 | 0 | 0.2 ± 0.28 | 0 | 0 | 0 | 0 | 0 | 0 | 0 | 0
17 | O=C(c1cc(Cc2n[nH]c(=O)c3ccccc23)ccc1F)N1CCN(C(=O)C2CC2)CC1 [Olaparib] | 5.7 ± 0.42 | 9.9 ± 0.28 | 0 | 0 | 2.9 | 2.93 | 0.287 | 0 | 5.4 | 3.7 | 4.88
18 | CC(=O)O[C@H]1C(=O)[C@@]2(C)[C@H]([C@H](OC(=O)c3ccccc3)[C@]3(O)C[C@H](OC(=O)[C@H](O)[C@@H](NC(=O)c4ccccc4)c4ccccc4)C(C)=C1C3(C)C)[C@]1(OC(C)=O)CO[C@@H]1C[C@@H]2O [Paclitaxel] | 28.1 ± 1.8 | 25.4 ± 1.8 | 18.8 ± 0.14 | 1.68 | 0 | 16 | 3.69 | 6.08 | 22.7 | 8.1 | 19.8
19 | Cc1[nH]c2ccccc2c1CCNCc1ccc(/C=C/C(=O)NO)cc1 [Panobinostat] | 23.05 ± 0.071 | 20.2 | 13.15 ± 0.071 | 30.2 | 23.3 | 20 | 20.6 | 22.9 | 22.5 | 29.4 | 21.5
20 | Cc1ccc(Nc2nccc(N(C)c3ccc4c(C)n(C)nc4c3)n2)cc1S(N)(=O)=O [Pazopanib] | 0.95 ± 0.49 | 0 | 0 | 0 | 11.6 | 0 | 2.18 | 2.65 | 3.6 | 3.8 | 5.8
21 | OC[C@H]1O[C@@H](n2cnc3c2N=CNC[C@H]3O)C[C@@H]1O [Pentostatin] | 0.55 ± 0.78 | 0.2 ± 0.28 | 0 | 6.24 | 1.7 | 1.77 | 0 | 0 | 2.2 | 0 | 0
22 | CS(=O)(=O)N1CCN(Cc2cc3nc(-c4cccc5[nH]ncc45)nc(N4CCOCC4)c3s2)CC1 [Pictilisib] | 8.5 ± 1.7 | 7.85 ± 3.5 | 2.35 ± 0.49 | 13.5 | 18.1 | 0 | 10.2 | 5.43 | 10.9 | 15.5 | 10.1
23 | CC[C@@H]1C(=O)OC[C@@H]1Cc1cncn1C [Pilocarpine] | 0.7 ± 0.99 | 0.5 ± 0.71 | 0.55 ± 0.78 | 0 | 0 | 0 | 0 | 0 | 2 | 0 | 0
24 | CO[C@H](C(=O)[C@@H](O)[C@@H](C)O)[C@@H]1Cc2cc3cc(O[C@H]4C[C@@H](O[C@@H]5C[C@@H](O)[C@H](O)[C@@H](C)O5)[C@H](O)[C@@H](C)O4)c(C)c(O)c3c(O)c2C(=O)[C@H]1O[C@H]1C[C@@H](O[C@@H]2C[C@@H](O)[C@@H](O[C@@H]3C[C@](C)(O)[C@H](O)[C@@H](C)O3)[C@@H](C)O2)[C@H](O)[C@@H](C)O1 [Plicamycin] | 9.8 ± 2.7 | 11.8 ± 3 | 3 ± 0.28 | 25.8 | 6.6 | 23 | 11.9 | 10.6 | 12.2 | 23.5 | 6.38
25 | C[C@]12C=CC(=O)C=C1CC[C@@H]1[C@@H]2[C@@H](O)C[C@@]2(C)[C@H]1CC[C@]2(O)C(=O)CO [Prednisolone] | 1.25 ± 1.8 | 5.1 ± 2.5 | 0 | 21.2 | 20.1 | 2.95 | 0.75 | 0.18 | 15.6 | 2.4 | 5.82
26 | CC(C)(C)c1cc(NC(=O)Nc2ccc(-c3cn4c(n3)sc3cc(OCCN5CCOCC5)ccc34)cc2)no1 [Quizartinib] | 1.6 ± 1.3 | 2.6 ± 0.14 | 0.25 ± 0.071 | 0 | 3.5 | 0 | 3.04 | 0 | 0.6 | 4.6 | 0.0314
27 | CNC(=O)c1cc(Oc2ccc(NC(=O)Nc3ccc(Cl)c(C(F)(F)F)c3)c(F)c2)ccn1 [Regorafenib] | 9.1 | 4.8 ± 0.28 | 2.1 ± 0.14 | 6.28 | 9.7 | 1.6 | 0.743 | 5.39 | 4.7 | 6.5 | 10.6
28 | CNCc1ccc(-c2[nH]c3cc(F)cc4c3c2CCNC4=O)cc1 [Rucaparib] | 2.1 ± 0.99 | 2.3 ± 3.2 | 0 | 0 | 1.4 | 1.36 | 0.032 | 0 | 0.1 | 3.1 | 0.662
29 | CC(C)(C)c1cnc(CSc2cnc(NC(=O)C3CCNCC3)s2)o1 [SNS-032] | 21.6 ± 0.64 | 19.4 ± 3 | 9.3 ± 0.14 | 11.8 | 30.2 | 15.6 | 29 | 21.6 | 35 | 30.5 | 29.1
30 | CN1CCN(CCOc2cc(OC3CCOCC3)c3c(Nc4c(Cl)ccc5c4OCO5)ncnc3c2)CC1 [Saracatinib] | 15.6 ± 0.49 | 8.4 ± 1.8 | 5.55 ± 0.21 | 0 | 5.4 | 5.3 | 3.27 | 7.03 | 6.8 | 8.8 | 18
